Assays:
[1] = parameters: method as in PMID 22532167; conditions: animal models; cited from earlier work
[2] = Plasma pharmacokinetics of ARQ 501 (β-lapachone) after intravenous ARQ 761 (UHPLC-MS/MS, two-compartment model); format: in vivo, human; conditions: plasma ARQ 501 after ARQ 761 infusions
Method: During the first and fourth infusions of study drug, serial blood samples for determination of plasma ARQ 501 levels were drawn at the following time points: pre-infusion, infusion start, 15 min, 30 min, 60 min, 120 min (for the 2-h infusion cohort), 15 min post-infusion, 1 h post-infusion, 3 h post-infusion, 5 h post-infusion, 24 h post-infusion, 48 h post-infusion, and 168 h post-infusion. ARQ 501 plasma concentrations were determined using an ultra-high-performance liquid chromatography tandem mass spectrometric analytical method. This method utilised a Nexera Series UHPLC system (Shimadzu Corporation, Kyoto, Japan), which was interfaced with a Sciex QTRAP 5500 mass spectrometer (Foster City, CA, USA).
Sample preparation included a liquid–liquid extraction of ARQ 501 and the internal standard dihydrotanshone (IS) from plasma. Briefly, 100 µL of a 700 ng/mL solution of IS in methanol:acetonitrile (3:1) was added to a 2-mL Eppendorf tube and spun to dryness on a CentriVap benchtop vacuum concentrator (Labconco, Kansas City, USA). To the dried tube, 25-µL aliquots of plasma, 25-µL of blank plasma, and 200-µL de-ionised water were added and vortex mixed. To the resultant solution, a 1-mL aliquot of methyl tert-butyl ether:ethyl acetate (1:1) was added. The mixture was shaken for 10 min at 2500 rpm on a VWR shaker. Samples were then centrifuged for 10 min at 4000 rpm at 4.0 °C. […]

[3] = cited from earlier work

CC1(C)CCC2=C(O1)c1ccccc1C(=O)C2=O [ARQ 501, β-lapachone]
Duration of methemoglobinaemia [1]: 5 min
Accumulation, Dose 1 vs. Dose 4 [2]: does not accumulate to any appreciable extent
Predominant dose-limiting toxicity (DLT) [3]: haemolytic anaemia
MTD ([3]; earlier ARQ 501 compound, no reference given): 390 mg/m^2

— PMC6203852 (British Journal of Cancer, 2018)
